What was measured:
Assay type in all cases: cell-based, human
[1] = system: SW-620; assay: NCI drug screen, SW-620; conditions: SW-620 (Colon Cancer); 1.00E−5 Molar
Method: (§1) In brief, cellular protein levels were determined after 48 hours of drug exposure by sulforhodamine B colorimetry. Through the use of a time 0 cell control, the cell growth can be determined for each cell line thus allowing calculations of the 50% growth inhibitory concentration (GI50), the total growth inhibition (TGI), and the 50% lethal concentration (LC50). Comparison to plates not exposed to drug permits determination of concentration and times of exposure conferring 50% net growth inhibition (GI50), TGI, and 50% cell kill (LC50).
(§2) The screening system in United State National Cancer Institute (NCI) is consisted of 60 kinds of different human cancer cells, which can be used to assay the growth-inhibiting ability or cell toxicity of a compound against various cancer and tumor at a certain concentration.

[2] = system: CCRF-CEM; assay: NCI drug screen, CCRF-CEM; conditions: CCRF-CEM (Leukemia); 1.00E−5 Molar
Method: as §1, §2

[3] = system: TK-10; assay: NCI drug screen, TK-10; conditions: TK-10 (Renal Cancer); 1.00E−5 Molar
Method: as §1, §2

[4] = system: HS 578-T; assay: NCI drug screen, HS 578-T; conditions: HS 578-T (Breast Cancer); 1.00E−5 Molar
Method: as §1, §2

[5] = MTT assay, PhTERT-SEAP (H1299); conditions: human, H1299 cells carrying the PhTERT-SEAP reporter, PhTERT-SEAP (H1299); for viability at 1 μM: Conc. 1 μM, read-out: Relative MTT viability (%); for viability at 10 μM: Conc. 10 μM; for viability at 10 μM / viability at 100 μM: read-out: Relative MTT viability (%) (converted); for viability at 100 μM: Conc. 100 μM
In short: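 Cultured cells received MTT for 4 h at 37 °C, then lysis buffer overnight at 37 °C. Optical density was read at 550 nm.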

[6] = system: SF-268; assay: NCI drug screen, SF-268; conditions: SF-268 (CNS Cancer); 1.00E−5 Molar
Method: as §1, §2

[7] = system: UO-31; assay: NCI drug screen, UO-31; conditions: UO-31 (Renal Cancer); 1.00E−5 Molar
Method: as §1, §2

[8] = system: SNB-19; assay: NCI drug screen, SNB-19; conditions: SNB-19 (CNS Cancer); 1.00E−5 Molar
Method: as §1, §2

[9] = system: RXF 393; assay: NCI drug screen, RXF 393; conditions: RXF 393 (Renal Cancer); 1.00E−5 Molar
Method: as §1, §2

[10] = system: M14; assay: NCI drug screen, M14; conditions: M14 (Melanoma); 1.00E−5 Molar
Method: as §1, §2

[11] = system: IGROV1; assay: NCI drug screen, IGROV1; conditions: IGROV1 (Ovarian Cancer); 1.00E−5 Molar
Method: as §1, §2

[12] = system: HCC-2998; assay: NCI drug screen, HCC-2998; conditions: HCC-2998 (Colon Cancer); 1.00E−5 Molar
Method: as §1, §2

[13] = system: SK-MEL-5; assay: NCI drug screen, SK-MEL-5; conditions: SK-MEL-5 (Melanoma); 1.00E−5 Molar
Method: as §1, §2

[14] = system: HL-60(TB); assay: NCI drug screen, HL-60(TB); conditions: HL-60(TB) (Leukemia); 1.00E−5 Molar
Method: as §1, §2

[15] = system: NCI-H522; assay: NCI drug screen, NCI-H522; conditions: NCI-H522 (Non-Small Cell Lung Cancer); 1.00E−5 Molar
Method: as §1, §2

[16] = system: CAKI-1; assay: NCI drug screen, CAKI-1; conditions: CAKI-1 (Renal Cancer); 1.00E−5 Molar
Method: as §1, §2

[17] = system: OVCAR-3; assay: NCI drug screen, OVCAR-3; conditions: OVCAR-3 (Ovarian Cancer); 1.00E−5 Molar
Method: as §1, §2

[18] = system: MDA-MB-468; assay: NCI drug screen, MDA-MB-468; conditions: MDA-MB-468 (Breast Cancer); 1.00E−5 Molar
Method: as §1, §2

[19] = system: NCI/ADR-RES; assay: NCI drug screen, NCI/ADR-RES; conditions: for Growth Percent: NCI/ADR-RES (Ovarian Cancer), 1.00E−5 Molar
Method: as §1, §2

[20] = system: LOX IMVI; assay: NCI drug screen, LOX IMVI; conditions: LOX IMVI (Melanoma); 1.00E−5 Molar
Method: as §1, §2

[21] = system: HCT-116; assay: NCI drug screen, HCT-116; conditions: HCT-116 (Colon Cancer); 1.00E−5 Molar
Method: as §1, §2

[22] = system: MOLT-4; assay: NCI drug screen, MOLT-4; conditions: MOLT-4 (Leukemia); 1.00E−5 Molar
Method: as §1, §2

[23] = system: HOP-92; assay: NCI drug screen, HOP-92; conditions: HOP-92 (Non-Small Cell Lung Cancer); 1.00E−5 Molar
Method: as §1, §2

[24] = system: HT29; assay: NCI drug screen, HT29; conditions: HT29 (Colon Cancer); 1.00E−5 Molar
Method: as §1, §2

[25] = system: SF-295; assay: NCI drug screen, SF-295; conditions: SF-295 (CNS Cancer); 1.00E−5 Molar
Method: as §1, §2

[26] = system: MCF7; assay: NCI drug screen, MCF7; conditions: MCF7 (Breast Cancer); 1.00E−5 Molar
Method: as §1, §2

[27] = system: EKVX; assay: NCI drug screen, EKVX; conditions: EKVX (Non-Small Cell Lung Cancer); 1.00E−5 Molar
Method: as §1, §2

[28] = system: SN12C; assay: NCI drug screen, SN12C; conditions: SN12C (Renal Cancer); 1.00E−5 Molar
Method: as §1, §2

[29] = system: K562; assay: NCI drug screen, K562; conditions: K562 (Leukemia); 1.00E−5 Molar
Method: as §1, §2

[30] = system: NCI-H23; assay: NCI drug screen, NCI-H23; conditions: NCI-H23 (Non-Small Cell Lung Cancer); 1.00E−5 Molar
Method: as §1, §2

Structure (SMILES) | Growth Percent [1] [%] | Growth Percent [2] [%] | Growth Percent [3] [%] | Growth Percent [4] [%] | viability at 1 μM [5] [%] | viability at 10 μM [5] [%] | viability at 100 μM [5] [%] | Growth Percent [6] [%] | Growth Percent [7] [%] | Growth Percent [8] [%] | Growth Percent [9] [%] | Growth Percent [10] [%] | Growth Percent [11] [%] | Growth Percent [12] [%] | Growth Percent [13] [%] | Growth Percent [14] [%] | Growth Percent [15] [%] | Growth Percent [16] [%] | Growth Percent [17] [%] | Growth Percent [18] [%] | further results
Cc1ccc(C(=O)Nc2c(NC(=O)CN3CCCC3)ccc3c2C(=O)c2ccccc2C3=O)cc1 [CC-38, 1-(4-methylbenzamido)-2-[2-(tetrahydro-1H-1-pyrrolyl)acetylamino]-anthra quinone] | 82.29 | 39.61 | 86.85 | 69.39 | 88.2 ± 4.94 | 69 | 5.05 | 86.17 | 69.24 | 108.22 | 63.80 | 88.01 | 106.07 | 84.60 | 61.74 | 96.11 | 103.02 | 55.64 | 77.82 | 69.27 | Growth Percent [19]: 50.86%; Growth Percent [20]: 80.62%; Growth Percent [21]: 58.46%; Growth Percent [22]: 48.20%; Growth Percent [23]: 59.33%; Growth Percent [24]: 31.34%; Growth Percent [25]: 68.97%; Growth Percent [26]: 70.79%; Growth Percent [27]: 65.93%; Growth Percent [28]: 74.82%; Growth Percent [29]: 40.86%; Growth Percent [30]: 73.29%
Cc1ccc(C(=O)Nc2c(NC(=O)CN3CCN(C)CC3)ccc3c2C(=O)c2ccccc2C3=O)cc1 [CC-43, 1-(4-methylbenzamido)-2-[2-(4-methylpiperazino)acetylamino]-anthraquinone] | 39.17 | 61.06 | 101.93 | 87.29 | 78.8 ± 3.47 | 29.5 | 8.11 | 59.11 | 70.66 | 68.75 | 68.84 | −60.04 | 112.20 | 28.97 | 41.30 | −8.54 | 88.21 | 69.76 | −6.15 | 7.43 | Growth Percent [19]: 66.74%; drug-resistance against adriamycin (ADR) ([19]; human multiple drug-resistant cell NCI/ADR-RES): possessed drug-resistance against adriamycin (ADR); Growth Percent [20]: 1.24%; Growth Percent [21]: 8.37%; Growth Percent [22]: 26.04%; Growth Percent [23]: 90.68%; Growth Percent [24]: 3.69%; Growth Percent [25]: 89.86%; Growth Percent [26]: 31.79%; Growth Percent [27]: 78.07%; Growth Percent [28]: 63.31%; Growth Percent [29]: −4.52%; Growth Percent [30]: 89.52%
